The target of one experiment is SmBRD3(2) (Schistosoma mansoni, UniProt A0A5K4ESD7). Nature of the experiment: biochemical. Format: binding. Conditions: for N number, binding to SmBRD3(2), Mean: mean of repeats.
The next experiment concerns the target SmBRD3(1,2) (Schistosoma mansoni, UniProt A0A5K4ESD7). In words: biochemical. Type of experiment: binding. As to conditions: for N number, binding to SmBRD3(1,2): ITC stoichiometry, n=1 ± error of curve fit; for Kd: ITC.
In another experiment the test system is S. mansoni miracidia. In words: Ex vivo miracidia to sporocyst transformation screening. Also noted: species or system Schistosoma mansoni. Conditions: 0.5-25 μM in 1% DMSO; 48 h; 26 °C. Here is the method:
S. mansoni miracidia were obtained by hatching of schistosome eggs as previously described.[73] The resulting miracidial suspension was collected, washed with Chernin’s balanced salt solution (CBSS),[73] and enumerated prior to being used for ex vivo miracidia to sporocyst screens as previously reported.[66],[73] Each compound was tested at 0.5, 2.0, 5.0, 10, and 25 μM final concentrations (in 1% DMSO). Each treatment was set up in duplicate (15–25 miracidia/well). Each titration was performed in three independent experiments (two technical replicates per data point). Parasites cultured in CBSS (containing 1% DMSO) were included as negative controls. After 48 h incubation at 26 °C in the dark, dead, fully transformed and partially transformed miracidia were enumerated as previously described.[74],[75]

The next experiment deals with S. mansoni adult worms. Nature of the experiment: Ex vivo adult worm screening (motility, IVLEs, pairing). Also noted: species or system Schistosoma mansoni. As to conditions: 20 μM in 0.2% DMSO; 72 h. Here is the method:
S. mansoni adult worms were recovered by hepatic portal vein perfusion from TO mice (Mus musculus HsdOLa:TO - Tuck Ordinary; Envigo, UK) that were percutaneously infected 7 weeks earlier with 180 cercariae.[65],[71] Following perfusion, schistosomes were washed and processed as previously described.[65],[66] Subsequently, schistosome pairs were seeded into 48 well tissue culture plates (1 worm pair/well, in duplicate) and dosed with the compounds (20 μM in 0.2% DMSO). DMSO (0.2%) and praziquantel (10 μM in 0.1% DMSO) were also included as negative and positive controls, respectively. Parasite motility was assessed by a digital image processing-based system (WormassayGP2),[66] modified after Wormassay.[72]In vitro laid eggs (IVLEs) were enumerated and the presence or absence of paired worms was noted.

A further experiment has as its system S. mansoni schistosomula. Nature of the experiment: Ex vivo schistosomula screening (Roboworm high content imaging). More on the design: species or system Schistosoma mansoni. Conditions: 72 h; for EC50: Schistosoma mansoni, ethyl esters (R=Et), 95% CI in brackets. The protocol: A high-throughput imaging platform that quantifies both phenotype and motility ex vivo, was used to screen compounds against schistosomula; their effects were assessed as previously described.[20] Briefly, the schistosomula stage of S. mansoni was obtained by mechanical transformation of cercariae, dispensed into 384-well tissue culture plates, and dosed with 20 μM (Figure 7) or 10 μM (Figure S48) of each compound. Following 72 h coincubation of the schistosomula and compound, the plate was subjected to high content imaging to quantify the effects of each compound.
S. mansoni schistosomula were obtained by mechanical transformation from cercariae as previously described,[64] distributed in 384-well tissue culture plates (PerkinElmer, catalogue number 6007460) at 120 parasites/well and dosed with the selected compounds as previously reported.[65]−[68] For this study, each compound (as 10 mM DMSO stock solution) was initially tested at two concentration points (20 and 10 μM final concentration, in duplicates) in at least four independent screens (Z′ scores above 0.35).[69] Each screen contained both positive (10 μM auranofin (AUR) in 0.625% DMSO) and negative (0.625% DMSO) controls. […] Following 72 h schistosomula/compound coincubation, the plate was analyzed by the Roboworm platform.[70] EC50 values were calculated from the titrated concentrations by nonlinear regression, after log transformation of concentrations and data normalization using GraphPad Prism 7.02.

Where [1] appears, read: ITC, single run ± error of curve fit, Repeat 1.
Setting [2] is: ITC, single value ± error of the curve fit or mean of 2-3 repeats ± s.e.m.
The mark [3] stands for this setting: SmBRD3(1,2) Kd, n = 1 ± error of the curve fit.
Where [4] appears, read: ITC, read-out: SmBRD3(2) pKd (converted).
The mark [5] stands for this setting: ITC, single run ± error of curve fit, Repeat 2, read-out: SmBRD3(2) Kd, Repeat 2.
The mark [6] stands for this setting: read-out: SmBRD3(2) Kd, Repeat 1.
The mark [7] stands for this setting: 20 μM (Figure 7) or 10 μM (Figure S48).
Setting [8] is: read-out: Schistosomla Movement EC50.
Where [9] appears, read: read-out: Schistosomla Phenotype EC50.

SMILES strings stand for the structures. Read-outs that look alike come from different tables or passages of the source.

By EC50 is commonly meant the concentration at which the effect is half-maximal.

Sequence of SmBRD3(2) (A0A5K4ESD7 entry or part of it): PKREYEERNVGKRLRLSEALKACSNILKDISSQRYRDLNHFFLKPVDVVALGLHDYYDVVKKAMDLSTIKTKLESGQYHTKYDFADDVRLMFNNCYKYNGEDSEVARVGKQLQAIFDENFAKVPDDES
Sequence of SmBRD3(1,2) (A0A5K4ESD7 entry or part of it): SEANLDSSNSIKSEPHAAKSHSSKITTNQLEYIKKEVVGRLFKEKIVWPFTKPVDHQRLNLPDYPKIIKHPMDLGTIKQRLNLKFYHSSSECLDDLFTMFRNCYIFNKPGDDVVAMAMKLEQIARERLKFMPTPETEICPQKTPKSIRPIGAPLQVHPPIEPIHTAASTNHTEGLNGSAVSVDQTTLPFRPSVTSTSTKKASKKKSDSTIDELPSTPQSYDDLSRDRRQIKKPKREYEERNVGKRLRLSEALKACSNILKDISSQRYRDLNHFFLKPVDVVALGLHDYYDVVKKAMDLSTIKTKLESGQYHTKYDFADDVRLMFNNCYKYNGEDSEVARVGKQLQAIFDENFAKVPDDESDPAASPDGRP

In the case of `Cc1noc(C)c1-c1cc(O)cc(C(O)c2ccc(F)cc2)c1` (stereo not shown) [Compound 3, OXFBD02-F, reference compound], the “SmBRD3(2) Kd, Repeat 1” value at SmBRD3(2) (setting [1]) is “No binding”. Moreover, on SmBRD3(2) (setting [2]), the “SmBRD3(2) Kd” value is recorded as “No detectable binding”. Further, the “N number, binding to SmBRD3(1,2)” value on SmBRD3(1,2) is on record as 1.05 ± 3.9e-2. Besides, the values for the Kd at SmBRD3(1,2) (setting [3]) and at SmBRD3(1,2) (SmBRD3(1,2) pKd) were 1750 ± 301 nM and 1580 nM, respectively.

`CC(=O)N1c2ccc(-c3ccc(C(=O)O)cc3)cc2[C@H](Nc2ccc3ccoc3c2)C[C@@H]1C` [Compound 11, 4-((2S,4R)-1-Acetyl-4-[(1-benzofuran-6-yl)amino]-2-methyl-1,2,3,4-tetrahydroquinolin-6-yl)benzoic Acid]: the “N number, binding to SmBRD3(2), Repeat 1” value on SmBRD3(2) (ITC stoichiometry, Repeat 1) is on record as 1.54 ± 2.5e-2. Moreover, the “N number, binding to SmBRD3(2), Repeat 2” value on SmBRD3(2) (ITC stoichiometry, Repeat 2) is 1.49 ± 3.0e-2. Besides, on SmBRD3(2) (ITC stoichiometry), the “N number, binding to SmBRD3(2), Mean” value is on record as 1.52. The Kd is 1260 nM on SmBRD3(2) (setting [4]), 1300 ± 236 nM on SmBRD3(2) (setting [5]), 1180 ± 120 nM on SmBRD3(2) (read-out: SmBRD3(2) Kd) and 1060 ± 164 nM at SmBRD3(2) (setting [6]).

As for `CC(=O)N1c2ccc(-c3ccc(C(=O)O)cc3)cc2[C@H](Nc2ccc3sccc3c2)C[C@@H]1C` [Compound 12, 4-((2S,4R)-1-Acetyl-4-[(1-benzothiophen-5-yl)amino]-2-methyl-1,2,3,4-tetrahydroquinolin-6-yl)benzoic Acid], the “N number, binding to SmBRD3(2), Repeat 1” value at SmBRD3(2) (ITC stoichiometry, Repeat 1) is 1.51 ± 1.8e-2. In addition, the “N number, binding to SmBRD3(2), Repeat 2” value on SmBRD3(2) (ITC stoichiometry, Repeat 2) is given as 1.55 ± 1.4e-2. Moreover, the “N number, binding to SmBRD3(2), Mean” value on SmBRD3(2) (ITC stoichiometry) is reported as 1.53. Moreover, the Kd on SmBRD3(2) (setting [4]) was 501 nM; on SmBRD3(2) (setting [5]), 543 ± 60.3 nM; at SmBRD3(2) (read-out: SmBRD3(2) Kd), 553 ± 9.5 nM; on SmBRD3(2) (setting [6]) it was 562 ± 79.1 nM.

As for `CC(=O)N1c2ccc(-c3ccc(C(=O)O)cc3)cc2[C@H](Nc2ccc3[nH]ccc3c2)C[C@@H]1C` [Compound 13, 4-{(2S,4R)-1-Acetyl-4-[(1H-indol-5-yl)amino]-2-methyl-1,2,3,4-tetrahydroquinolin-6-yl}benzoic Acid], the “N number, binding to SmBRD3(2), Repeat 1” value at SmBRD3(2) (ITC stoichiometry, Repeat 1) is on record as 1.52 ± 2.0e-2. In addition, at SmBRD3(2) (ITC stoichiometry, Repeat 2), the “N number, binding to SmBRD3(2), Repeat 2” value was 1.71 ± 1.8e-2. Further, on SmBRD3(2) (ITC stoichiometry, Repeat 3), the “N number, binding to SmBRD3(2), Repeat 3” value is on record as 1.60 ± 1.6e-2. Also, the “N number, binding to SmBRD3(2), Mean” value on SmBRD3(2) (ITC stoichiometry) is 1.61. Moreover, the Kd on SmBRD3(2) (setting [4]) is 631 nM; on SmBRD3(2) (setting [5]), 652 ± 78.5 nM; on SmBRD3(2) (ITC, single run ± error of curve fit, Repeat 3, read-out: SmBRD3(2) Kd, Repeat 3) it was 672 ± 76 nM; at SmBRD3(2) (read-out: SmBRD3(2) Kd), 651 ± 12.7 nM; at SmBRD3(2) (setting [6]), 628 ± 94.9 nM.

As to `CCOC(=O)c1ccc(-c2ccc3c(c2)[C@H](Nc2ccc4ccsc4c2)C[C@H](C)N3C(C)=O)cc1` [Compound 16, Ethyl 4-{(2S,4R)-1-Acetyl-4-[(1-benzothiophen-6-yl)amino]-2-methyl-1,2,3,4-tetrahydroquinolin-6-yl}benzoate], the “Effect on miracidia to sporocyst transformation” value in the experiment on S. mansoni miracidia is “concentration-dependent inhibition”. Further, on SmBRD3(2), the “SmBRD3(2) Kd” value is given as “No binding” and the “SmBRD3(2) Kd, Repeat 1” value was “No binding”. Also, the “Effect on adult worm movement” value in the experiment on S. mansoni adult worms is “substantial effects”.

For the compound `CCOC(=O)c1ccc(-c2ccc3c(c2)[C@H](Nc2ccc4ccoc4c2)C[C@H](C)N3C(C)=O)cc1` [Compound 18, Ethyl 4-{(2S,4R)-1-Acetyl-4-[(1-benzofuran-6-yl)amino]-2-methyl-1,2,3,4-tetrahydroquinolin-6-yl}benzoate], at SmBRD3(2), the “SmBRD3(2) Kd” value was “No binding” and the “SmBRD3(2) Kd, Repeat 1” value was “No binding”. In the experiment on S. mansoni schistosomula, the “Antischistosomula activity at 10 μM” value is listed as “active”. The “Effect on schistosomula motility” value with S. mansoni schistosomula (setting [7]) is “substantial effects”. Also, the EC50 in the experiment with S. mansoni schistosomula (setting [8]) amounted to 3920 nM. The EC50 in the experiment on S. mansoni schistosomula (setting [9]) stood at 2430 nM. Also, in the experiment with S. mansoni adult worms, the “Effect on adult worm movement” value is listed as “substantial effects”.

Regarding `CCOC(=O)c1ccc(-c2ccc3c(c2)[C@H](Nc2ccc4sccc4c2)C[C@H](C)N3C(C)=O)cc1` [Compound 19], at SmBRD3(2), the “SmBRD3(2) Kd” value is reported as “No binding” and the “SmBRD3(2) Kd, Repeat 1” value is recorded as “No binding”.

For the compound `CCOC(=O)c1ccc(-c2ccc3c(c2)[C@H](Nc2ccc4[nH]ccc4c2)C[C@H](C)N3C(C)=O)cc1` [Compound 20, Ethyl 4-{(2S,4R)-1-Acetyl-4-[(1H-indol-5-yl)amino]-2-methyl-1,2,3,4-tetrahydroquinolin-6-yl}benzoate], on SmBRD3(2), the “SmBRD3(2) Kd” value is reported as “No binding” and the “SmBRD3(2) Kd, Repeat 1” value is “No binding”. Further, in the experiment with S. mansoni schistosomula, the “Antischistosomula activity at 10 μM” value is reported as “active”. In addition, the EC50 with S. mansoni schistosomula (setting [8]) amounted to 1810 nM. Further, in the experiment on S. mansoni schistosomula (setting [9]), the EC50 was determined as 2970 nM. Besides, in the experiment on S. mansoni adult worms, the “Effect on adult worm movement” value is reported as “substantial effects”.

For the compound `CCOC(=O)c1ccc(-c2ccc3c(c2)[C@H](Nc2ccc4ncsc4c2)C[C@H](C)N3C(C)=O)cc1` [Compound 21, Ethyl 4-{(2S,4R)1-Acetyl-4-[(1,3-benzothiazol-6-yl)amino]-2-methyl-1,2,3,4-tetrahydroquinolin-6-yl}benzoate], on SmBRD3(2), the “SmBRD3(2) Kd” value was “No binding” and the “SmBRD3(2) Kd, Repeat 1” value is “No binding”. Besides, the “Antischistosomula activity at 10 μM” value in the experiment with S. mansoni schistosomula is reported as “active”. In the experiment with S. mansoni schistosomula (setting [7]), the “Effect on schistosomula motility” value is “greatest effects” and the “Effect on schistosomula phenotype” value was “greatest effects”. Besides, in the experiment on S. mansoni schistosomula (setting [8]), the EC50 came to 2850 nM. For the same compound, the EC50 in the experiment on S. mansoni schistosomula (setting [9]) turned out to be 2140 nM. Besides, the “Effect on adult worm movement” value with S. mansoni adult worms was “substantial effects”.

On to `Cc1noc(C)c1-c1cc(O)cc(C(O)c2cccnc2)c1` (stereo not shown) [OXFBD04 (4), OXFBD04, reference compound], for which the “Effect on miracidia to sporocyst transformation” value in the experiment on S. mansoni miracidia was “modest effects”. In addition, on SmBRD3(2) (setting [1]), the “SmBRD3(2) Kd, Repeat 1” value was “No binding”. Also, on SmBRD3(2) (setting [2]), the “SmBRD3(2) Kd” value was “No detectable binding”. Moreover, the “N number, binding to SmBRD3(1,2)” value on SmBRD3(1,2) is reported as 1.39 ± 2.0e-2. In addition, the Kd at SmBRD3(1,2) (setting [3]) is 2950 ± 261 nM; on SmBRD3(1,2) (SmBRD3(1,2) pKd) it was 3160 nM.
